Measured values as given in publication PMC10112232, “Comparison of Toxicities among Different Bumped Kinase Inhibitor Analogs for Treatment of Cryptosporidiosis” (Antimicrobial Agents and Chemotherapy, 2023).
Read-outs that look alike come from different tables or passages of the source.

Experiments:
[1] = Mouse locomotor activity box; type: in vivo; details: mice, 150 mg/kg QD for 5 days; for distance traveled / stereotypic horizontal activity / vertical rearing activity: vs controls
Procedure: BKIs –1770, -1841, and -1708 were tested in the mouse locomotor activity box to screen for possible neurological issues (Fig. S7). All three BKIs were dosed at 150 mg/kg QD for 5 days.
(§1) Methods for synthesis of BKIs ([17], [23]), efficacy against Nluc expressing C. parvum in infected adult IFN-γ KO mice ([6], [9]), in vivo mouse GI tract tissue exposure by LC/MS-MS analysis ([18], [28]), PK analysis of mouse plasma and brain tissue BKI concentrations by LC/MS-MS analysis ([29]), in vivo rat and dog cardiotoxicity screen ([30]), efficacy against IOWA-II strain C. parvum in infected neonatal calves ([13]), efficacy against C. hominis in infected piglets ([12]), in vitro inhibition of C. parvum CDPK1 (CpCDPK1) and human tyrosine kinase SRC (HsSRC) activity ([31]), in vitro inhibition of hERG ([32]), Nluc expressing C. parvum in vitro growth inhibition in infected HCT-8 cells ([6]), in vitro cytotoxicity in CRL-8155 and HepG2 cells ([29]), and mouse locomotor activity box ([33], [34]) have all been previously described. Analytes were measured by LC/MS-MS on an Acquity ultra performance liquid chromatography (UPLC) system in tandem with a Xevo TQ-S mass spectrometer (Waters, Milford, MA, USA).

[2] = Multidose mouse toxicity, tibial epiphyseal growth plate; type: in vivo; details: for gross signs of toxicity / width of the tibia epiphyseal growth plate vs vehicle controls: 3 week old mice, oral 150 mg/kg QD for 7 days; for width of the tibia epiphyseal growth plate vs vehicle controls: n = 3
Procedure: The recurring presence of toxicity in calves manifesting as dropped pasterns, as well as the observations of bone toxicity in rats, led to the exploration of possible bone toxicity screening in mice to allow for screening prior to dosing in larger animals. To test for effects to the growth plate in developing bones, 3 week old mice were dosed for 7 days QD and euthanized 24 h after the final dose. The right and left tibia were dissected from each mouse and stained with AgNO3 to visualize the growth plate and measurements across the widths compared to vehicle-only treated controls. […] The remaining two mice for this treatment were immediately euthanized and their tibias extracted early on day 4.
Mouse toxicity testing and evaluation of the tibial epiphyseal plate have been previously described ([18], [38]) and were performed with some modifications. Briefly, 3 week old BALB/c mice (n = 3) were dosed orally once daily for 7 days. Mice were euthanized along with vehicle treated controls by cardiac puncture for collection of blood for analysis. Necropsy, obtaining blood for serum chemistries, histology of organs (brain, heart, lungs, spleen, liver, stomach, small intestine, large intestine and kidney), and removal of tibias were performed within 24 h of the final dose. Examination of organ histology included routine H&E and Oil-Red O (lipid)-stained organs from the treated mice and a set of untreated matched controls. Pathological examination was performed by a board certified pathologist who was blinded to the treatment and control group identities. Tibias were removed and immediately placed in dH2O for a minimum of 1 h. Using a fresh number 11 scalpel blade, a quick sagittal cut was made across the femoral condyle opposite the fibula, and a second cut was made across the second femoral condyle separating the fibula and tibia. The tibias were then immersed in acetone for 1 h to dehydrate. Dehydrated tibias were washed in dH2O for 2 min, then soaked in 1.5% AgNO3 for 1 min in a container protected from light. Tibias were then rinsed in dH2O for 2 min and exposed to strong light for 10 sec. Stained tibias were stored in 70% ethanol for >10 min before examining the growth plates at ×40 magnification using an Amscope stereo microscope with a mounted camera. Photos were taken using the Amscope image capture software. A calibration slide was used to establish a μm to pixel ratio of 1:1.184. Using the Measurement Tool, 10 measurements were taken across each epiphyseal plate by orienting the cursor at right angles from the growth plate borders by two different researchers (one set unblinded; one set blinded) and average width was assigned to each tibia from each animal.

[3] = Pharmacokinetics in mice (plasma, brain, GI tissues) by LC/MS-MS; type: in vivo, mouse; details: for Kp: mouse, brain, read-out: brain penetration (brain tissue to plasma area-under-the-curve)
Procedure: For evaluation of its suitability for in vivo dosing, BKI-1841 was also tested in mice for plasma exposure after a single dose (Fig. 2). […] A dose of 25 mg/kg BKI-1841 was used to evaluate brain penetration over 4 h using the same method (Fig. 2).
as §1

C. hominis = experiment: Efficacy in neonatal gnotobiotic piglets infected with C. hominis; type: in vivo; details: 5 mg/kg BID
Procedure: Rectal swabs were processed for oocyst count and DNA measurement. The plot represents mean ± SEM. Wilcoxon matched-pairs signed rank test was conducted using GraphPad Prism 7.03. […] The 5 day doses were given on days 0–4, the 8 day doses were given on days 0–7.
as §1

C. parvum = experiment: Efficacy in neonatal calves infected with C. parvum; type: in vivo
Procedure: (§2) There were also improvements in the treated calves in both fecal volume and consistency, urine output, weight gain and daily clinical scores compared to control calves (Fig. S3). […] Fecal volume, fecal consistency, and clinical scores were improved for all treatment groups compared to controls, but these improvements were delayed for the 1 mg/kg group.
Total oocyst excretion determined by RT-PCR concentration and total by fecal weight shed per day. (A) Oocyst excretion per day after treatment with BKI-1770. […] (C) Oocyst excretion per day after treatment with BKI-1841. (D) Cumulative total oocyst excretion for days 3 through 10 after treatment with BKI-1841. […] BKI-1841 BID treatments were administered on days 2 through 4 and QD treatments were administered on days 2 through 5. […] QD = once daily, BID = twice daily.
(§3) BKI-1841 was dosed at 5, 2, and 1 mg/kg BID for 3 days and 2 mg/kg QD for 4 days (Fig. 5, Fig. S4). […] Urine output was consistent for all groups, including controls, and fecal volume and consistency were improved for all groups over controls (Fig. S4). […] This occurred to some degree with all dosing regimens, developing with the fewest doses at 5 mg/kg BID. With the lowest dose of 1 mg/kg BID, the onset of dropped pasterns began after the third dose and continued until self-resolving 2 days after dosing concluded. All signs of dropped pasterns were gone by the end of the experiment on day 10 postinfection.
as §1

[4] = Plasma concentrations and clinical toxicity signs in treated neonatal calves; type: in vivo, calf; details: for Cmax: bovine, plasma
Procedure: as §2, §3

Aqueous solubility = type: physicochemical
Source text: TABLE 1 In vitro properties of bumped kinase inhibitors^a | column: Solubility at pH 2 (μM); Solubility at pH 6.5 (μM)

[5] = In vitro cytotoxicity in HepG2 cells; type: cell-based; details: human
Source text: as §1

CCOc1ccc2cc(-c3nn(C(C)(C)CCO)c(N)c3C(N)=O)ccc2c1 [BKI-1770]
overall effect on locomotor activity [1]: depression in movement | distance traveled [1]: significant (P < 0.05) decrease in distance traveled from 20 to 60 min | stereotypic horizontal activity [1]: increased horizontal activity from 0 to 40 min | vertical rearing activity [1]: decreased vertical activity throughout the study | gross signs of toxicity [2]: no gross signs of toxicity | width of the tibia epiphyseal growth plate vs vehicle controls [2]: significant (P < 0.05) increases | time to depletion in plasma to submicromolar concentrations ([3]; mice, after oral dosing): 1 to 2 h | ileum tissue concentration ([3]; mice, single 30 mg/kg oral dose, through 12 h): > 1 µM | Kp ([3]; mice, single 30 mg/kg oral dose): 0.1 | oocyst counts in feces vs controls (C. hominis; 5-day treatment (P = 0.001)): significantly reduced | oocyst counts in feces vs controls (C. hominis; 8-day treatment (P = 0.0168)): significantly reduced | diarrhea scores (C. hominis; both 5- and 8-day treatment groups): significantly reduced | total oocysts excreted (C. parvum; 5 mg/kg BID for 5 days (n = 5), days 3 to 10 postinfection, control 1.62E10): 2.58E9 oocysts | minimal efficacious dose (C. parvum; BID): 3 mg/kg | total oocyst excretion per day vs controls (C. parvum; all dosed groups (5, 3, 2, 1 mg/kg BID for 5 days)): significant differences | hyperflexion of the limbs (dropped pasterns) ([4]; 5 mg/kg BID for 5 days): observed in two of the 5 mg/kg calves | bloody diarrhea ([4]; 5 mg/kg BID, one calf): some bloody diarrhea | Cmax ([4]; 3 mg/kg BID, at 4 h post dose 1, read-out: plasma observed Cmax): 3.4 ± 0.06 µM | Cmax ([4]; 5 mg/kg BID, at 4 h post dose 5, read-out: plasma observed maximum concentration (Cmax)): 10.3 ± 5.4 µM

CCOc1ccc2cc(-c3nn(C4CCOCC4)c(N)c3C(N)=O)ccc2n1 [BKI-1841]
overall effect on locomotor activity [1]: depression in movement | distance traveled [1]: significant (P < 0.05) decrease | stereotypic horizontal activity [1]: significant (P < 0.05) decrease | vertical rearing activity [1]: significant (P < 0.05) decrease | gross signs of toxicity [2]: no gross signs of toxicity | width of the tibia epiphyseal growth plate vs vehicle controls [2]: did not show significant increases | blood chemistry and histology vs control animals ([2]; mice (data not shown)): no abnormalities or indications of toxicity | solubility (Aqueous solubility; aqueous medium at pH 2, pH 2, simulated gastric fluid, read-out: Solubility at pH 2): > 100 µM | solubility (Aqueous solubility; aqueous medium at pH 6.5, pH 6.5, aqueous buffer, read-out: Solubility at pH 6.5): > 100 µM | plasma exposure ([3]; for more than 6 h after a single 25 mg/kg dose in mice): > 1 µM | signs of toxicity ([3]; mice, single 25 mg/kg dose): no signs of toxicity | Kp ([3]; mice, single 25 mg/kg oral dose, over 4 h): 0.27 | CC50 [5]: > 80 µM | total oocyst excretion reduction (C. parvum; 1 mg/kg BID for 3 days): little reduction | total oocyst excretion per day vs controls (C. parvum; 1 mg/kg group): no significant difference | total oocyst excretion reduction (C. parvum; 5 mg/kg BID for 3 days and 2 mg/kg BID given for 3 or 4 days): 2 to 4 log | total oocyst excretion per day vs controls (C. parvum; 5 mg/kg and both 2 mg/kg groups): significant differences | predose plasma concentration ([4]; 1 mg/kg BID, last day of treatment): 1.3 ± 0.1 µM | ataxia ([4]; 5 mg/kg BID, during the 3 days of dosing): signs of ataxia | hyperflexion of the limbs (dropped pasterns) ([4]; all dosing regimens (5, 2, 1 mg/kg BID 3 days; 2 mg/kg QD 4 days)): all calves dosed with BKI-1841 showed signs of hyperflexion of the limbs seen as dropped pasterns | safety index ([4]; dropped pasterns at lowest dose tested (1 mg/kg BID)): < 1
